Patent publication US5496834A, “Lactol derivatives, their production and use” (Takeda Chemical Industries, Ltd., priority 1993, dated 1996)
Numbered stars: 1 amine (or outer) side, 2 acyl side, 3 side chain; on linkers, the order of the positions; unused ones are H or OH. Peptide text beside a SMILES is read from it. CO = O=C([*:1])[*:2]

Tests used:
[1] = tested on: bone (antebrachial bones: radii, cubiti); experiment: bone resorption inhibitory action (45Ca release from cultured fetal rat bones); type: cell-based, Sprague-Dawley rat; conditions: 48 h, 2 days culture, mean of 5 bone pieces, lower = stronger inhibition, read-out: Bone resorption Inhibitory Activity [45Ca release (Percent to control)]; for activity at 10 µM: concentration 10 μM, p<0.05, p<0.01, ***, p<0.001 vs. control; for activity at 30 µM: concentration 30 μM, p<0.05, p<0.01 vs. control
Procedure: Bone resorption inhibitory activity was assayed by the method of Raisz [J. Clin. Invest. 44, 103-116 (1965) which is incorporated herein by reference]. Thus, a Sprague-Dawley rat on day 18 of gestation was subcutaneously dosed with 50 μCi of ^45 Ca (an isotope of calcium, dissolved in CaCl2). The following day, the abdomen was opened and the fetuses were aseptically extracted. Under the dissecting microscope, the bilateral antebrachial bones (radii, cubiti) were separated from the carcass and the connective tissues and cartilages were removed as far as possible to prepare bone culture specimens. Each of these bone specimens was put in 0.6 ml of BGJb medium (Fitton-Jackson modification; GIBCO Laboratories, USA) supplemented with bovine serum albumin (final concentration 2 mg/ml) and incubated at 37° C. for 24 hours. This bone was further cultured in the same medium containing the test compound (final concentration 10 μM or 30 μM) for 2 days. The percent ratio (%) of ^45 Ca released from the bone to the medium was calculated from the radioactivity count in the medium and that in the bone by means of the following equation. [formula]
As a control group, the bones from a fetus of the same litter were similarly cultured for 2 days. The mean ± standard deviation was calculated for 5 bone pieces per group and the percentage (%) of this value relative to the value of the control group was calculated.

human cathepsin L = target: T1, human cathepsin L (Homo sapiens, UniProt P07711); experiment: human cathepsin L inhibitory action; type: biochemical; conditions: recombinant human cathepsin L, substrate Z-Phe-Arg-NMec, pH 5.5, 30° C., 10 minutes
T1 construct: made in house
T1 sequence (P07711 114-333): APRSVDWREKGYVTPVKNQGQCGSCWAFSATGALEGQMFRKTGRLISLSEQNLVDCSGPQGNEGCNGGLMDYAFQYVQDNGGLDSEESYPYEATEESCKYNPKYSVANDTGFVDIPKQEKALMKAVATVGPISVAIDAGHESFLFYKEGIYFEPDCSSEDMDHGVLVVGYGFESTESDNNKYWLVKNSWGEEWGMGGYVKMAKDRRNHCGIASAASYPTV
Procedure: The recombinant human cathepsin L obtained by the procedure described in Example 8 of the specification of EPC 931098792 (European Publication No. 0576953 A2) (which is incorporated herein by reference) was diluted to 1 μg/ml with a diluent (0.1% Brij35, Sigma). This diluted enzyme solution was admixed with 46 μl of said diluent, 2 μl of 0.1M DTT and 25 μl of an activator/buffer (340 mM sodium acetate, 60 mM acetic acid, 4 mM EDTA disodium, pH 5.5). Then, 1 μl of a solution of the test compound in dimethyl sulfoxide (DMSO) (10 ^-2 M) and 25 μl of 20 μM Z-phe-Arg-NMec (substrate solution) were added. The mixture was incubated at 30° C. for 10 minutes, after which 100 μl of a reaction stopper (100 mM sodium monochloroacetate, 30 mM sodium acetate, pH 4.3) was added. This reaction was carried out on a 96-well Fluoroplate (Labosystems).
After termination of the reaction, the intensity of fluorescence of liberated aminomethylcoumarin at 450 nm was measured at an excitation wavelength of 365 nm. As a blank experiment, 1 μl of DMSO not containing the test compound was added and the intensity of fluorescence after the reaction was taken as 100% activity. For a sample showing a residual activity of 10% or less, a further diluted solution was used to determine the residual activity by the same procedure as above. Then, IC50 values were calculated.

cathepsin L = conditions: reported as one of their inhibition activities; cited from earlier work
mice = experiment: oral toxicity in mice; type: in vivo; conditions: 500 mg/kg
Excerpt: Moreover, its toxic potential is low. […] Therefore, the compound (Ia) or (Ib) of this invention can be used in the prophylaxis and therapy of osteoporosis in mammalian animals (e.g. mouse, rat, rabbit, dog, cat, cattle, swine and man).

SMILES	activity at 10 µM [1] [%]	IC50 (human cathepsin L) [nM]	also measured
CC(C)C[C@H](NC(=O)OCc1ccccc1)C(=O)N[C@@H](CC(C)C)C(=O)N[C@H]1CCOC1O (stereo partly drawn) [Example 16]	77	–	–
CC(=O)O[C@@H]1OCC[C@@H]1NC(=O)[C@H](CC(C)C)NC(=O)c1ccccn1 [Example 64]	–	690	–
CC(=O)N[C@@H](CC(C)C)C(=O)N[C@@H](CC(C)C)C(=O)N[C@H](C=O)CCCNC(=N)N [leupeptin]	–	–	cathepsin L inhibitory activity (cathepsin L): cathepsin L inhibitory activity
CC(C)C[C@H](NC(=O)Nc1cccc2ccccc12)C(=O)NC1CCOC1O (stereo partly drawn) [Example 32, 2-hydroxy-3-[[N-(1-naphthylcarbamoyl)-(L)-leucyl]amino]tetrahydrofuran]	–	–	activity at 30 µM [1]: 77%
CC(C)C[C@H](NC(=S)Nc1cccc2ccccc12)C(=O)N[C@H]1CCOC1O (stereo partly drawn) [Example 21]	67	–	–
CC(C)C[C@H](NS(=O)(=O)c1cccc2ccccc12)C(=O)N[C@H]1CCCOC1O (stereo partly drawn) [Example 35, (3S)-2-hydroxy-3-[[N-(1-naphthalenesulfonyl)-(L)-leucyl]amino]tetrahydropyran]	82	–	–
CC(C)[C@H](NC(=O)[C@H](CCCNC(=N)N)NC(=O)N[C@@H](Cc1ccccc1)C(=O)O)C(=O)N[C@H](C=O)CCCNC(=N)N [antipain] ({Phe-CO}-Arg-Val-Arg-aldehyde)	–	–	cathepsin L inhibitory activity (cathepsin L): cathepsin L inhibitory activity
COC1OCC[C@@H]1NC(=O)[C@H](CC(C)C)NC(=O)Nc1cccc2ccccc12 (stereo partly drawn) [Example 89, (3S)-2-methoxy-3-[[N-(1-naphthylcarbamoyl)-(L)-leucyl]amino]-tetrahydrofuran]	–	190	–
CC(C)C[C@H](NC(=O)Nc1cccc2ccccc12)C(=O)N[C@H]1CCOC1O (stereo partly drawn) [Example 17]	–	6.9	–
CC[C@H](C)[C@H](NS(=O)(=O)c1cccc2ccccc12)C(=O)N[C@H]1CCOC1O (stereo partly drawn) [Example 4]	–	57	–
CCCC(CCC)C(=O)N[C@H](C(=O)N[C@H]1CCO[C@H]1OC(C)=O)C(C)C [Example 60]	–	–	deaths after oral administration (mice): killed no test animals
CC(C)C[C@H](NC(=O)OCc1ccccc1)C(=O)N[C@@H](CC(C)C)C(=O)N[C@H]1CCCOC1O (stereo partly drawn) [Example 38]	–	52	–
CC(C)(C)OC(=O)N[C@@H](Cc1ccccc1)C(=O)N[C@H]1CCOC1O (stereo partly drawn) [Example 1, (3S)-3-[[N-tert-butoxycarbonyl-(L)-phenylalanyl]amino]-2-hydroxytetrahydrofuran]	–	30	–
CC(=O)O[C@@H]1OCC[C@@H]1NC(=O)[C@H](CC(C)C)NC(=O)Nc1cccc2ccccc12 [Example 29, (2S,3S)-2-acetoxy-3-[[N-(1-naphthylcarbamoyl)-(L)-leucyl]amino]-tetrahydrofuran]	–	–	activity at 30 µM [1]: 67%
CCOP(=O)(Cc1ccc(C(=O)N[C@@H](CC(C)C)C(=O)N[C@H]2CCOC2O)cc1)OCC (stereo partly drawn) [Example 42]	–	29	–
CCCC(CCC)C(=O)N[C@H](C(=O)N[C@H]1CCOC1O)C(C)C (stereo partly drawn) [Example 12]	64	32	–
CC(C)[C@H](NC(=O)OCc1ccccc1)C(=O)N[C@H]1CCOC1O (stereo partly drawn) [Example 6]	–	30	–
CC(C)C[C@H](NC(=O)OCc1ccccc1)C(=O)N[C@H]1CCOC1O (stereo partly drawn) [Example 15]	26	–	–
COC(=O)C[C@H](NC(=O)OCc1ccccc1)C(=O)N[C@H]1CCOC1OC (stereo partly drawn) [Example 74, (3S)-3-[[N-benzyloxycarbonyl-(L)-(3-methoxycarbonyl)alanyl]amino] -2-methoxytetrahydrofuran]	78	–	–
O=C(N[C@@H](Cc1ccccc1)C(=O)N[C@H]1CCOC1O)OCc1ccccc1 (stereo partly drawn) [Example 5]	–	8	–
CC(=O)O[C@@H]1OCC[C@@H]1NC(=O)[C@H](CC(C)C)NC(=O)c1cccnc1 [Example 62]	–	870	–
O=C(COc1ccccc1)N[C@@H](Cc1ccccc1)C(=O)N[C@H]1CCOC1O (stereo partly drawn) [Example 14]	–	9.4	–
CC(=O)OC1OCC[C@@H]1NC(=O)[C@@H](NC(=O)OCc1ccccc1)C(C)C (stereo partly drawn) [Example 25, (3S)-2-acetoxy-3-[[N-benzyloxycarbonyl-(L)-valyl]amino]tetrahydrofuran]	75	450	–
O=C(N[C@@H](Cc1ccccc1)C(=O)N[C@H]1CCCOC1O)OCc1ccccc1 (stereo partly drawn) [Example 23]	–	28	–
CCCC(CCC)C(=O)N[C@H](C(=O)N[C@H]1CCO[C@@H]1OC)C(C)C [Example 73, (2S,3S)-2-methoxy-3-[[N-valproyl-(L)-valyl]amino]tetrahydrofuran]	79	–	–
